Assay: xn = mol fraction of the nth substance listed
Settings: 101 kPa, Liquid

CC1COC(=O)O1 (stereo not given) [4-methyl-1,3-dioxolan-2-one] + Cc1ccccc1C
Settings	mass density [kg/m3]
293.15 K, x2 = 0	1200.25
293.15 K, x2 = 0.0538	1176.67
293.15 K, x2 = 0.1287	1145.43
293.15 K, x2 = 0.1843	1123.36
293.15 K, x2 = 0.2358	1103.71
293.15 K, x2 = 0.3149	1074.93
293.15 K, x2 = 0.3559	1060.64
293.15 K, x2 = 0.4247	1037.54
293.15 K, x2 = 0.4792	1020.01
293.15 K, x2 = 0.5345	1002.84
293.15 K, x2 = 0.6031	982.36
293.15 K, x2 = 0.6638	964.97
293.15 K, x2 = 0.7213	949.05
293.15 K, x2 = 0.7832	932.49
293.15 K, x2 = 0.8529	914.51
293.15 K, x2 = 0.9284	895.76
303.15 K, x2 = 0	1180.55
303.15 K, x2 = 0.0613	1155.03
303.15 K, x2 = 0.1273	1128.84
303.15 K, x2 = 0.1732	1111.36
303.15 K, x2 = 0.2583	1080.45
303.15 K, x2 = 0.3341	1054.45
303.15 K, x2 = 0.3619	1045.26
303.15 K, x2 = 0.4282	1024.01
303.15 K, x2 = 0.4911	1004.69
303.15 K, x2 = 0.5538	986.2
303.15 K, x2 = 0.6132	969.33
303.15 K, x2 = 0.6739	952.71
303.15 K, x2 = 0.7428	934.53
303.15 K, x2 = 0.8023	919.3
303.15 K, x2 = 0.8631	904.39
303.15 K, x2 = 0.9347	887.3
313.15 K, x2 = 0	1161.28
313.15 K, x2 = 0.0643	1135.09
313.15 K, x2 = 0.1138	1115.77
313.15 K, x2 = 0.1729	1093.62
313.15 K, x2 = 0.2483	1066.72
313.15 K, x2 = 0.3248	1040.87
313.15 K, x2 = 0.3958	1018.07
313.15 K, x2 = 0.4587	998.77
313.15 K, x2 = 0.518	981.29
313.15 K, x2 = 0.5628	968.51
313.15 K, x2 = 0.6345	948.78
313.15 K, x2 = 0.6948	932.83
313.15 K, x2 = 0.7539	917.73
313.15 K, x2 = 0.8039	905.34
313.15 K, x2 = 0.8621	891.32
313.15 K, x2 = 0.9357	874.17
323.15 K, x2 = 0	1142.43
323.15 K, x2 = 0.0527	1120.67
323.15 K, x2 = 0.1328	1089.28
323.15 K, x2 = 0.1842	1070.13
323.15 K, x2 = 0.2487	1047.11
323.15 K, x2 = 0.3398	1016.41
323.15 K, x2 = 0.3781	1004.09
